Laboratory results: patent US10993957B2 (NuCana plc, priority 2011, dated 2021)

Columns and labels:
carboxypeptidase Y = biological target: T1, carboxypeptidase Y (Saccharomyces cerevisiae, UniProt P00729); test: Carboxypeptidase Y assay by in situ 31P NMR; type: in vitro ADME; conditions: yeast (Saccharomyces cerevisiae), 5 mg/mL, pH 7.6
T1 construct: purchased Sigma-Aldrich
T1 sequence (P00729 112-532): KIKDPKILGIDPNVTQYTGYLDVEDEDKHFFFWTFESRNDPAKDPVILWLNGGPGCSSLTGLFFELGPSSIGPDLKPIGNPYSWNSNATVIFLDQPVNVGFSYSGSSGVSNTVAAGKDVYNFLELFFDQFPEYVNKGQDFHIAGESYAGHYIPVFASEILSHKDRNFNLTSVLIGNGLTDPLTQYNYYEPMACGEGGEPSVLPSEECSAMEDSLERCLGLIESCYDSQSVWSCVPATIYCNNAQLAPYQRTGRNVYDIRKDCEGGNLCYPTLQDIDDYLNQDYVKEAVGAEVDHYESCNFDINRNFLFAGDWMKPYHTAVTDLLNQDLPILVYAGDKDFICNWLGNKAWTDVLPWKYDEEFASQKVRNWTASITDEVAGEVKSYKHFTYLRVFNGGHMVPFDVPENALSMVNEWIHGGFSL
Experimental: The enzymatic stability of the prodrug CPF-373 towards carboxypeptidase Y was studied using in situ ^31P NMR (202 MHz). The experiment was carried out by dissolving CPF-373 (3.0 mg) in d6-acetone (150 μL) and adding TRIZMA buffer pH 7.6 (300 μL). The resulting solution was placed in an NMR tube and a ^31P-NMR experiment at 25° C. was recorded as the blank experiment. The enzyme Carboxypeptidase Y (0.2 mg) was solubilised in TRIZMA (150 μL) and added to the solution of the phosphoramidate derivative in the NMR tube. Next, the tube was placed in the NMR machine, which was set to run a ^31P-NMR experiment (64 scans) every 4 minutes for 14 hours at 25° C. Data were processed and analysed with the Bruker Topspin 2.1 program. Carboxypeptidase Y and TRIZMA buffer were purchased from Sigma-Aldrich.
The compound (1) was incubated with carboxypeptidase Y (also known as cathepsin A) in TRIZMA buffer and the conversion of (1) was monitored by ^31P NMR. For a better resolution original spectra (lower graphs) and deconvoluted ones (upper graphs) are shown.
A enzymatic study using a carboxypeptidase Y assay was performed in which compound CPF 581, carboxypeptidase Y, and Trizma buffer (pH 7.6) were dissolved in acetone-d6 and ^31P NMR spectrum (202 MHz) spectra were recorded at regular intervals (every 7 min) over 14 h. […]

[1] = Stability in human serum by in situ 31P NMR; type: in vitro ADME; conditions: 37° C., after 12 hours and 30 minutes
Experimental: The stability of the prodrug CPF-373 in the presence of human serum was studied using in situ ^31P NMR (202 MHz). The ProTide CPF-373 (1) (5.0 mg) was dissolved in DMSO (0.05 mL) and D2O (0.15 mL). Then the sample was transferred into an NMR tube, which was inserted in the NMR chamber at 37° C. (with enough solvent to obtain a control NMR reading of the blank). Then 0.3 ml human serum was quickly added to the sample in the NMR tube. NMR experiments were programmed to record data every 15 minutes for 12 hours and 30 minutes. Because of excess noise and poor shimming profiles (most likely due to the biological media and concentration), individual spectra were further processed. After normal Fourier transform processing, each spectrum was deconvoluted (Lorentz-Gauss deconvolution) to reveal solely the frequency and area of spectral peaks without the baseline. Data recorded were processed and analysed with the Bruker Topspin 2.1 program.
Chemical stability studies on the prodrug CPF-373 (1) have been performed by exposing the compound to human serum and to aqueous buffers (pH 1.0 and 8.0) using in situ ^31P NMR. […]
The stability of compound CPF 386 in the presence of human serum was investigated using in situ ^31P NMR. A control ^31P NMR data of compound CPF 386 in DMSO and D2O were recorded. […] The ^31P NMR data were recorded every 15 minutes over 14 h. […]

[2] = Stability in buffer at pH 8 by 31P NMR; type: physicochemical; conditions: 14 hours
Experimental: The stability of the prodrug CPF-373 towards hydrolysis at pH=8 was studied using in situ ^31P NMR (202 MHz). The ProTide CPF-373 (1) (4.9 mg) was dissolved in MeOD (0.1 mL) after which 0.5 mL buffer (pH=8) (prepared from a solution of 0.1 M Na2HPO4, which was adjusted by 0.1 M HCl) was added. Then the sample was transferred into an NMR tube, and a ^31P NMR experiment was performed at 37° C. recording the data every 12 minutes for 14 hours. Data were processed and analysed with the Bruker Topspin 2.1 program.
A chemical hydrolysis was evaluated under experimental conditions at pH 1 and pH 8 and monitored by ^31P NMR. During the assay (14 h) under acidic conditions (pH 1) only two peaks representing the two diastereoisomers were recorded.

human UP = human UP (Homo sapiens, UniProt Q16831); test: Phosphorolysis by human UP, HPLC; conditions: 100 μM compound, room temperature, 0-40 min
Chain of human UP (Q16831 whole entry): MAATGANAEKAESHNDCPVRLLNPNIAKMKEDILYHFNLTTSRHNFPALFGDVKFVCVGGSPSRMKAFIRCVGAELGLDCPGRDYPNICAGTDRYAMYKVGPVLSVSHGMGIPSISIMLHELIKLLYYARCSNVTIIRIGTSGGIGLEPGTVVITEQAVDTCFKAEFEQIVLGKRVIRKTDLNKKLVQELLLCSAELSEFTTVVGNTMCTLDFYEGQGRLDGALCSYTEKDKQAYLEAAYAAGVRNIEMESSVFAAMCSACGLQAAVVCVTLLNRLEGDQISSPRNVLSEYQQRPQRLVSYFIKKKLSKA
Experimental: Reaction mixtures containing 100 μM test compound and recombinant TP or UP (human TP: 8.6 ng/μL; E. coli TP: 3.0 ng/μL; human UP: 4 ng/mL) in a total volume of 500 μL reaction buffer (10 mM TrisHCl; 300 μM NaCl; 1 mM EDTA; 2 mM KH2PO4/K2HPO4) were incubated at room temperature. At different time points (i.e. 0, 20, 40 min) 100 μL aliquots of the reaction mixtures were withdrawn and heated at 95° C. for 3 min to inactivate the enzyme. […] The separation of Urd from uracil was performed by a linear gradient from 100% separation buffer (see above) to 60% separation buffer+40% acetonitrile (3 min 100% separation buffer; 6 min linear gradient of 100% separation buffer to 60% separation buffer+40% acetonitrile; 6 min 60% separation buffer+40% acetonitrile, followed by equilibration at 100% separation buffer).

With C[C@H](NP(=O)(OC[C@H]1O[C@@H](n2cc(F)c(=O)[nH]c2=O)CC1O)Oc1cccc2ccccc12)C(=O)OCc1ccccc1 (stereo partly drawn) [CPF 373, 5-Fluoro-2′deoxyuridine-5′-O-[1-naphthyl (benzoxy-L-alaninyl)] phosphate] the “time to complete conversion of parent to the putative intermediate” value (carboxypeptidase Y) was no more than 26 min, the “unchanged compound after incubation in human serum” value [1] was 73% and the “Stability towards hydrolysis at pH 8” value [2] was “full stability”. The “Phosphorolysis by human UP” value (human UP) was “not affected”.
